Data reported in patent US20250051356A1, “RIFABUTIN ANALOGS FOR THE TREATMENT OF DISEASE” (priority 2021, published 2025).
In brackets after ≈: the same amount, converted by molar mass. Read-outs that look alike come from different tables or passages of the source.

How the values were obtained:
Format in all cases: cell-based
[1] = test system: M. xenopi (ATCC 19250); assay: MIC against M. xenopi in CAMHB + ADC; conditions: Mycobacterium xenopi
[2] = test system: M. kansasii (ATCC 12478); assay: MIC against M. kansasii in CAMHB + ADC; conditions: Mycobacterium kansasii
[3] = test system: M. abscessus subsp. abscessus ATCC 19977; assay: MIC against M. abscessus in Middlebrook 7H9 + ADC; conditions: Mycobacteroides abscessus
[4] = test system: A. baumannii (HUMC1 strain); assay: MIC by broth microdilution against A. baumannii in RPMI + 10% FCS; conditions: Acinetobacter baumannii, read-out: MIC A. baumannii
[5] = test system: S. aureus (UAMS-1625 strain); assay: MIC by broth microdilution against S. aureus; conditions: Staphylococcus aureus, read-out: MIC S. aureus
[6] = test system: M. avium (ATCC 25291); assay: MIC against M. avium in CAMHB + ADC; conditions: Mycobacterium avium
[7] = ATCC19250, read-out: MIC M. xenopi
[8] = ATCC12478, ATCC 12478, CAMHB + ADC (5%), read-out: MIC M. kansasii
[9] = ATCC19977, ATCC 19977, 7H9 + ADC, read-out: MIC M. abscessus
[10] = ATCC25291, ATCC 25291, CAMHB + ADC (5%), read-out: MIC M. avium
[11] = ATCC19250, ATCC 19250, CAMHB + ADC (5%), read-out: MIC M. xenopi
[12] = ATCC12478, read-out: MIC M. kansasii
[13] = ATCC19977, read-out: MIC M. abscessus
[14] = ATCC25291, read-out: MIC M. avium

| SMILES | MIC [1, 7] [µg/mL] | MIC [2, 8] [µg/mL] | MIC [3, 9] [µg/mL] | MIC ([4]; HUMC1 strain, RPMI + 10% FCS) [µg/mL] | MIC [5] [µg/mL] | MIC [6, 10] [µg/mL] | MIC [1, 11] [µg/mL] | MIC [2, 12] [µg/mL] | MIC [3, 13] [µg/mL] | MIC [4] [µg/mL] | MIC [6, 14] [µg/mL] |
| --- | --- | --- | --- | --- | --- | --- | --- | --- | --- | --- | --- |
| CO[C@H]1/C=C/OC2(C)Oc3c(C)c(O)c4c(c3C2=O)C2=NC3(CCN(CC(C)C)CC3)NC2=C(NC(=O)/C(C)=C\C=C\[C@H](C)[C@H](O)[C@@H](C)[C@@H](O)[C@@H](C)[C@H](OC(=O)CC(=O)N2CCN(C3CCCCC3)CC2)[C@@H]1C)C4=O (some centres unmarked) [Compound 96] | 0.125 | 0.008 | 0.25 | 0.008 | 0.125 (≈ 0.12 µM) | 0.03 |  |  |  |  |  |
| CO[C@H]1/C=C/O[C@@]2(C)Oc3c(C)c(O)c4c(c3C2=O)C2=NC3(CCN(CC(C)C)CC3)NC2=C(NC(=O)/C(C)=C\C=C\[C@H](C)[C@H](O)[C@@H](C)[C@@H](O)[C@@H](C)[C@H](OC(=O)CC(=O)N2CCN(Cc3ccncc3)CC2)[C@@H]1C)C4=O [Compound 119] |  | 0.008 | 0.25 | ≤ 0.002 | 0.016 (≈ 0.0152 µM) | 1 | 0.25 |  |  |  |  |
| CO[C@H]1/C=C/O[C@@]2(C)Oc3c(C)c(O)c4c(c3C2=O)C2=NC3(CCN(CC(C)C)CC3)NC2=C(NC(=O)/C(C)=C\C=C\[C@H](C)[C@H](O)[C@@H](C)[C@@H](O)[C@@H](C)[C@H](OC(=O)CC(=O)N2CCC(Nc3cccnc3)CC2)[C@@H]1C)C4=O [Compound 109] | 0.25 |  |  |  | 0.06 (≈ 0.0571 µM) |  |  | 0.03 | 0.25 | 0.004 | 1 |
| CO[C@H]1/C=C/O[C@@]2(C)Oc3c(C)c(O)c4c(c3C2=O)C2=NC3(CCN(CC(C)C)CC3)NC2=C(NC(=O)/C(C)=C\C=C\[C@H](C)[C@H](O)[C@@H](C)[C@@H](O)[C@@H](C)[C@H](OC(=O)CC(=O)N2CCC(c3ccncc3)CC2)[C@@H]1C)C4=O [Compound 104] |  | 0.004 | 0.25 | 0.004 | 0.06 (≈ 0.058 µM) | 0.25 | 0.125 |  |  |  |  |
| CO[C@H]1/C=C/O[C@@]2(C)Oc3c(C)c(O)c4c(c3C2=O)C2=NC3(CCN(CC(C)C)CC3)NC2=C(NC(=O)/C(C)=C\C=C\[C@H](C)[C@H](O)[C@@H](C)[C@@H](O)[C@@H](C)[C@H](OC(=O)CC(=O)N2CCCN(c3nccc(C(F)(F)F)n3)CC2)[C@@H]1C)C4=O [Compound 125] |  | 0.008 | 0.125 | 0.25 | 0.5 (≈ 0.447 µM) | 0.03 | 0.06 |  |  |  |  |
| CO[C@H]1/C=C/O[C@@]2(C)Oc3c(C)c(O)c4c(c3C2=O)C2=NC3(CCN(CC(C)C)CC3)NC2=C(NC(=O)/C(C)=C\C=C\[C@H](C)[C@H](O)[C@@H](C)[C@@H](O)[C@@H](C)[C@H](OC(=O)CC(=O)N2CCN(Cc3ccccc3)CC2)[C@@H]1C)C4=O [Compound 91] |  | 0.001 | 0.125 | 0.016 | 0.25 (≈ 0.238 µM) | 0.125 | 0.03 |  |  |  |  |
| CO[C@H]1/C=C/O[C@@]2(C)Oc3c(C)c(O)c4c(c3C2=O)C2=NC3(CCN(CC(C)C)CC3)NC2=C(NC(=O)/C(C)=C\C=C\[C@H](C)[C@H](O)[C@@H](C)[C@@H](O)[C@@H](C)[C@H](OC(=O)CC(=O)N2CCCN(Cc3ccncc3)CC2)[C@@H]1C)C4=O [Compound 128] |  | 0.03 | 0.25 | ≤ 0.002 | 0.06 (≈ 0.0564 µM) | 0.5 | 0.25 |  |  |  |  |
| CO[C@H]1/C=C/O[C@@]2(C)Oc3c(C)c(O)c4c(c3C2=O)C2=NC3(CCN(CC(C)C)CC3)NC2=C(NC(=O)/C(C)=C\C=C\[C@H](C)[C@H](O)[C@@H](C)[C@@H](O)[C@@H](C)[C@H](OC(=O)CC(=O)N2CCN(c3ccccc3)CC2)[C@@H]1C)C4=O [Compound 11] |  | 0.008 | 0.125 | 0.016 | 0.25 (≈ 0.241 µM) | 0.125 | 0.06 |  |  |  |  |
| CO[C@H]1/C=C/O[C@@]2(C)Oc3c(C)c(O)c4c(c3C2=O)C2=NC3(CCN(CC(C)C)CC3)NC2=C(NC(=O)/C(C)=C\C=C\[C@H](C)[C@H](O)[C@@H](C)[C@@H](O)[C@@H](C)[C@H](OC(=O)C(C)C(=O)N2CCCN(c3ccc(F)cc3)CC2)[C@@H]1C)C4=O (some centres unmarked) [Compound 108] |  | 0.008 | 0.25 | 0.06 | 0.25 (≈ 0.231 µM) | 0.25 | 0.06 |  |  |  |  |
| CO[C@H]1/C=C/O[C@@]2(C)Oc3c(C)c(O)c4c(c3C2=O)C2=NC3(CCN(CC(C)C)CC3)NC2=C(NC(=O)/C(C)=C\C=C\[C@H](C)[C@H](O)[C@@H](C)[C@@H](O)[C@@H](C)[C@H](OC(=O)CC(=O)N2CCCN(Cc3ccccc3)CC2)[C@@H]1C)C4=O [Compound 126] |  | 0.004 |  | 0.004 | 0.125 (≈ 0.118 µM) | 0.03 | 0.03 |  | 0.125 |  |  |
| CO[C@H]1/C=C/O[C@@]2(C)Oc3c(C)c(O)c4c(c3C2=O)C2=NC3(CCN(CC(C)C)CC3)NC2=C(NC(=O)/C(C)=C\C=C\[C@H](C)[C@H](O)[C@@H](C)[C@@H](O)[C@@H](C)[C@H](OC(=O)CC(=O)N2CCC(Cc3ccccc3)CC2)[C@@H]1C)C4=O [Compound 50] | 0.03 |  |  |  | 2 (≈ 1.91 µM) |  |  | 0.004 | 0.125 | 0.06 | 0.06 |
| CO[C@H]1/C=C/O[C@@]2(C)Oc3c(C)c(O)c4c(c3C2=O)C2=NC3(CCN(CC(C)C)CC3)NC2=C(NC(=O)/C(C)=C\C=C\[C@H](C)[C@H](O)[C@@H](C)[C@@H](O)[C@@H](C)[C@H](OC(=O)CC(=O)N2CCN(Cc3ccccn3)CC2)[C@@H]1C)C4=O [Compound 118] |  | 0.03 | 0.25 | ≤ 0.002 | 0.06 (≈ 0.0571 µM) | 2 | 0.25 |  |  |  |  |
| CO[C@H]1/C=C/OC2(C)Oc3c(C)c(O)c4c(c3C2=O)C2=NC3(CCN(CC(C)C)CC3)NC2=C(NC(=O)/C(C)=C\C=C\[C@H](C)[C@H](O)[C@@H](C)[C@@H](O)[C@@H](C)[C@H](OC(=O)CCCC(=O)N2CCCN(c3ccc(F)cc3)CC2)[C@@H]1C)C4=O (some centres unmarked) [Compound 86] |  | 0.008 | 0.125 | 0.008 | 0.5 (≈ 0.456 µM) | 0.125 | 0.03 |  |  |  |  |
| CO[C@H]1/C=C/O[C@@]2(C)Oc3c(C)c(O)c4c(c3C2=O)C2=NC3(CCN(CC(C)C)CC3)NC2=C(NC(=O)/C(C)=C\C=C\[C@H](C)[C@H](O)[C@@H](C)[C@@H](O)[C@@H](C)[C@H](OC(=O)CC(=O)N2CCN(C3Cc5ccccc5C3)CC2)[C@@H]1C)C4=O [Compound 95] |  | 0.002 | 0.125 | 0.03 | 0.5 (≈ 0.465 µM) | 0.125 | 0.03 |  |  |  |  |
| CO[C@H]1/C=C/O[C@@]2(C)Oc3c(C)c(O)c4c(c3C2=O)C2=NC3(CCN(CC(C)C)CC3)NC2=C(NC(=O)/C(C)=C\C=C\[C@H](C)[C@H](O)[C@@H](C)[C@@H](O)[C@@H](C)[C@H](OC(=O)CC(=O)N2CCCN(c3ncccn3)CC2)[C@@H]1C)C4=O [Compound 124] |  | 0.008 | 0.125 | ≤ 0.002 | 0.03 (≈ 0.0285 µM) | 0.125 | 0.125 |  |  |  |  |
| CO[C@H]1/C=C/OC2(C)Oc3c(C)c(O)c4c(c3C2=O)C2=NC3(CCN(CC(C)C)CC3)NC2=C(NC(=O)/C(C)=C\C=C\[C@H](C)[C@H](O)[C@@H](C)[C@@H](O)[C@@H](C)[C@H](OC(=O)CC(=O)N2CCC(c3ccccc3)CC2)[C@@H]1C)C4=O (some centres unmarked) [Compound 101] | 0.03 |  |  |  | 0.5 (≈ 0.483 µM) |  |  | 0.002 | 0.125 | 0.06 | 0.03 |
| CO[C@H]1/C=C/O[C@@]2(C)Oc3c(C)c(O)c4c(c3C2=O)C2=NC3(CCN(CC(C)C)CC3)NC2=C(NC(=O)/C(C)=C\C=C\[C@H](C)[C@H](O)[C@@H](C)[C@@H](O)[C@@H](C)[C@H](OC(=O)CC(=O)N2CCC3C(CCCN3Cc3ccccc3)C2)[C@@H]1C)C4=O (some centres unmarked) [Compound 68] |  | 0.001 | 0.25 | 0.03 | 0.5 (≈ 0.453 µM) | 0.03 | 0.125 |  |  |  |  |
| CO[C@H]1/C=C/O[C@@]2(C)Oc3c(C)c(O)c4c(c3C2=O)C2=NC3(CCN(CC(C)C)CC3)NC2=C(NC(=O)/C(C)=C\C=C\[C@H](C)[C@H](O)[C@@H](C)[C@@H](O)[C@@H](C)[C@H](OC(=O)CC(=O)N2CCCN(c3ccncc3)CC2)[C@@H]1C)C4=O [Compound 121] |  |  | 0.25 | ≤ 0.002 | 0.125 (≈ 0.119 µM) | 2 |  | 0.125 |  |  |  |
| CO[C@H]1/C=C/O[C@@]2(C)Oc3c(C)c(O)c4c(c3C2=O)C2=NC3(CCN(CC(C)C)CC3)NC2=C(NC(=O)/C(C)=C\C=C\[C@H](C)[C@H](O)[C@@H](C)[C@@H](O)[C@@H](C)[C@H](OC(=O)C(C)C(=O)N2CCCCC2)[C@@H]1C)C4=O (some centres unmarked) [Compound 37] |  |  | 0.5 | ≤ 0.002 | 0.03 (≈ 0.0309 µM) |  |  |  |  |  |  |
| CO[C@H]1/C=C/O[C@@]2(C)Oc3c(C)c(O)c4c(c3C2=O)C2=NC3(CCN(CC(C)C)CC3)NC2=C(NC(=O)/C(C)=C\C=C\[C@H](C)[C@H](O)[C@@H](C)[C@@H](O)[C@@H](C)[C@H](OC(=O)CC(=O)N2CCC(NC(=O)OC(C)(C)C)CC2)[C@@H]1C)C4=O [Compound 59] |  |  | 0.5 | 0.008 | 0.125 (≈ 0.116 µM) |  |  |  |  |  |  |
| CO[C@H]1/C=C/O[C@@]2(C)Oc3c(C)c(O)c4c(c3C2=O)C2=NC3(CCN(CC(C)C)CC3)NC2=C(NC(=O)/C(C)=C\C=C\[C@H](C)[C@H](O)[C@@H](C)[C@@H](O)[C@@H](C)[C@H](OC(=O)CC(=O)N2CCN(C)CC2)[C@@H]1C)C4=O [Compound 10] |  |  | 1 | ≤ 0.002 | 0.016 (≈ 0.0164 µM) |  |  |  |  |  |  |
